The test system of one series is Shigella boydii DSM 7532. Particulars: Mueller-Hinton II broth + 0.02% BSA, 18-20 hours at 37° C. The method, then:
[…] colony forming units (CFU)/mL. Aliquots (50 μl) of inoculate were added to 50 μl of MH broth+0.02% BSA containing the peptide in serial two-fold dilutions. The following microorganisms were used to determine antibiotic selectivity of the peptides: Bacillus subtilis DSM 10 and Shigella boydii DSM 7532.

The nature of another series: in vitro. Type of series: cell-based. The method, then: The cytotoxicity of the peptides to HELA cells (Acc57) and COS-7 cells (CRL-1651) was determined using the MTT reduction assay (T. Mossman, J. Immunol. Meth. 1983, 65, 55-63; M. V. Berridge, A. S. Tan, Arch. Biochem. Biophys. 1993, 303, 474-482). Briefly, the method was as follows: 4000 HELA cells/well and 3400 COS-7 cells/well were seeded and grown in 96-well microtiter plates for 24 h at 37° C. at 5% CO2. Thereafter, time zero (Tz) was determined by MTT reduction (see below). The supernatant of the remaining wells was discarded, and fresh medium and compounds in serial dilutions (12.5, 25 and 50 μg/mL, triplicates) were pipetted into the wells. After incubation of the cells for 48 h at 37° C. at 5% CO2 the supernatant was discarded again and 100 μL MTT reagent (0.5 mg/mL in RPMI1640 and DMEM, respectively)/well was added. Following incubation at 37° C. for 2-4 h the media were aspirated and the cells were spiked (100 μL isopropanol/well). The absorbance of the solubilized formazan was measured at 595 nm (OD595peptide). For each concentration averages were calculated from triplicates. The percentage of growth was calculated as follows: (OD595peptide-OD595Tz-OD595Empty well)/(OD595Tz-OD595Empty well)×100%. The GI50 (Growth Inhibition) concentrations were calculated for each peptide by using a trend line function for the concentrations (50, 25, 12.5 and 0 μg/mL), the corresponding percentages and the value 50, (=TREND (C50:C0%50:%0,50).

In series [1] the test system is human red blood cells (hRBC). Type of series: cell-based. To be noted: red cells of human, 1 h. The method, then: The peptides were tested for their hemolytic activity against human red blood cells (hRBC). Fresh hRBC were washed three times with phosphate buffered saline (PBS) and centrifuged for 10 min at 2000×g. Compounds (100 μg/mL) were incubated with 20% hRBC (v/v) for 1 h at 37° C. and shaking at 300 rpm. The final erythrocyte concentration was approximately 0.9×10^9 cells/mL. A value of 0% and 100% cell lyses, respectively, was determined by incubation of hRBC in the presence of PBS containing 0.001% acetic acid and 2.5% Triton X-100 in H2O, respectively. The samples were centrifuged, the supernatants were 8-fold diluted in PBS buffer and the optical densities (OD) were measured at 540 nm. The 100% lyses value (OD540H2O) gave an OD50 of approximately 0.5-1.0.
Percent hemolysis was calculated as follows: (OD540peptide/OD540H2O)×100%.

Values after ≈ are worked out from the molar mass of the structure shown. Peptide text beside a SMILES is read from it.

One may read the GI50 as the concentration at which growth is held to half of that of the control. As to `CC[C@H](C)[C@@H]1NC(=O)[C@H](CCCNC(=N)N)NC(=O)[C@H](Cc2c[nH]c3ccccc23)NC(=O)[C@@H]2CCCN2C(=O)[C@H]2CCCN2C(=O)[C@H](C)NC(=O)[C@H](CCC(N)=O)NC(=O)[C@H](CC(C)C)NC(=O)[C@H](CCCNC(=N)N)NC(=O)[C@H](CCC(N)=O)NC(=O)[C@H](CCC(N)=O)NC(=O)[C@@H](CCCNC(=N)N)NC(=O)[C@H]([C@@H](C)CC)NC(=O)[C@H](CCCNC(=N)N)NC1=O` [Example 11] (HELM PEPTIDE1{W.R.I.R.I.[dR].Q.Q.R.L.Q.A.[dP].P}$PEPTIDE1,PEPTIDE1,1:R1-14:R2$$$V2.0), in the series on Shigella boydii DSM 7532, the “Shigella boydii DSM 7532 MIC” value was >16 µg/mL. The GI50 at 48 h in “in vitro” (African green monkey) and in the series “in vitro” (human) was > 50 µg/mL throughout. In addition, the “Hemolysis at 100 μg/mL” value in series [1] stood at 0.0%.
As to `CC[C@H](C)[C@@H]1NC(=O)[C@H](CCCNC(=N)N)NC(=O)[C@H](Cc2c[nH]c3ccccc23)NC(=O)[C@@H]2CCCN2C(=O)[C@H]2CCCN2C(=O)[C@H](C)NC(=O)[C@H](CCC(N)=O)NC(=O)[C@H](CC(C)C)NC(=O)[C@H](CCCNC(=N)N)NC(=O)[C@H](CCC(N)=O)NC(=O)[C@H]([C@@H](C)O)NC(=O)[C@@H](CCCNC(=N)N)NC(=O)[C@H]([C@@H](C)CC)NC(=O)[C@H](CCCNC(=N)N)NC1=O` [Example 12] (HELM PEPTIDE1{W.R.I.R.I.[dR].T.Q.R.L.Q.A.[dP].P}$PEPTIDE1,PEPTIDE1,1:R1-14:R2$$$V2.0), the “Shigella boydii DSM 7532 MIC” value in the series on Shigella boydii DSM 7532 was >16 µg/mL. The GI50 at 48 h in the series “in vitro” (African green monkey) and in “in vitro” (human) was > 50 µg/mL throughout. In addition, the “Hemolysis at 100 μg/mL” value in series [1] was 0.7%.
As to `CC[C@H](C)[C@@H]1NC(=O)[C@H](CCCNC(=N)N)NC(=O)[C@H](Cc2c[nH]c3ccccc23)NC(=O)[C@@H]2CCCN2C(=O)[C@H]2CCCN2C(=O)[C@H](C)NC(=O)[C@H](CCC(N)=O)NC(=O)[C@H](CC(C)C)NC(=O)[C@H](CCCNC(=N)N)NC(=O)[C@H](CCC(N)=O)NC(=O)[C@H](CC(C)C)NC(=O)[C@@H](CCCNC(=N)N)NC(=O)[C@H]([C@@H](C)CC)NC(=O)[C@H](CCCNC(=N)N)NC1=O` [Example 13] (HELM PEPTIDE1{W.R.I.R.I.[dR].L.Q.R.L.Q.A.[dP].P}$PEPTIDE1,PEPTIDE1,1:R1-14:R2$$$V2.0), the “Shigella boydii DSM 7532 MIC” value in the series on Shigella boydii DSM 7532 was determined as 16 µg/mL. Besides, the 50% growth inhibitory concentration (GI50) at 48 h in “in vitro” (African green monkey) and in “in vitro” (human) was > 50 µg/mL in each case. The “Hemolysis at 100 μg/mL” value in series [1] is 0.0%.
As to `CC[C@H](C)[C@@H]1NC(=O)[C@H](CCCNC(=N)N)NC(=O)[C@H](Cc2c[nH]c3ccccc23)NC(=O)[C@@H]2CCCN2C(=O)[C@H]2CCCN2C(=O)[C@H](C)NC(=O)[C@H](CCC(N)=O)NC(=O)[C@H](CC(C)C)NC(=O)[C@H](CCCNC(=N)N)NC(=O)[C@H](CCC(N)=O)NC(=O)[C@H](Cc2ccc(O)cc2)NC(=O)[C@@H](CCCNC(=N)N)NC(=O)[C@H]([C@@H](C)CC)NC(=O)[C@H](CCCNC(=N)N)NC1=O` [Example 14] (HELM PEPTIDE1{W.R.I.R.I.[dR].Y.Q.R.L.Q.A.[dP].P}$PEPTIDE1,PEPTIDE1,1:R1-14:R2$$$V2.0), the “Shigella boydii DSM 7532 MIC” value with Shigella boydii DSM 7532 was found to be 16 µg/mL. Also, the GI50 at 48 h in “in vitro” (African green monkey) and in “in vitro” (human) was > 50 µg/mL throughout. In series [1], the “Hemolysis at 100 μg/mL” value is 0.0%.
Take `CC[C@H](C)[C@@H]1NC(=O)[C@H](CCCNC(=N)N)NC(=O)[C@H](Cc2c[nH]c3ccccc23)NC(=O)[C@@H]2CCCN2C(=O)[C@H]2CCCN2C(=O)[C@H](C)NC(=O)[C@H](CCC(N)=O)NC(=O)[C@H](Cc2ccc(O)cc2)NC(=O)[C@H](CCCNC(=N)N)NC(=O)[C@H](CCC(N)=O)NC(=O)[C@H](CC(N)=O)NC(=O)[C@@H](CCCNC(=N)N)NC(=O)[C@H]([C@@H](C)CC)NC(=O)[C@H](CCCNC(=N)N)NC1=O` [Example 15] (HELM PEPTIDE1{W.R.I.R.I.[dR].N.Q.R.Y.Q.A.[dP].P}$PEPTIDE1,PEPTIDE1,1:R1-14:R2$$$V2.0): in the series on Shigella boydii DSM 7532, the “Shigella boydii DSM 7532 MIC” value came out at 16 µg/mL. Further, the concentration for 50% growth inhibition (GI50) at 48 h in the series “in vitro” (African green monkey) and in “in vitro” (human) was > 50 µg/mL throughout. For the same molecule, the “Hemolysis at 100 μg/mL” value in series [1] is on record as 0.0%.
With `CC[C@H](C)[C@@H]1NC(=O)[C@H](CCCNC(=N)N)NC(=O)[C@H](Cc2c[nH]c3ccccc23)NC(=O)[C@@H]2CCCN2C(=O)[C@H]2CCCN2C(=O)[C@H](C)NC(=O)[C@H](CCC(N)=O)NC(=O)[C@H](Cc2c[nH]c3ccccc23)NC(=O)[C@H](CCCNC(=N)N)NC(=O)[C@H](CCC(N)=O)NC(=O)[C@H](CC(N)=O)NC(=O)[C@@H](CCCNC(=N)N)NC(=O)[C@H]([C@@H](C)CC)NC(=O)[C@H](CCCNC(=N)N)NC1=O` [Example 16] (HELM PEPTIDE1{W.R.I.R.I.[dR].N.Q.R.W.Q.A.[dP].P}$PEPTIDE1,PEPTIDE1,1:R1-14:R2$$$V2.0), in the series with Shigella boydii DSM 7532, the “Shigella boydii DSM 7532 MIC” value turned out to be 16 µg/mL. Besides, the 50% growth inhibitory concentration (GI50) at 48 h in the series “in vitro” (African green monkey) and in “in vitro” (human) was > 50 µg/mL each time. Further, in series [1], the “Hemolysis at 100 μg/mL” value turned out to be 0.5%.
Turning to `CC[C@H](C)[C@@H]1NC(=O)[C@H](CCCNC(=N)N)NC(=O)[C@H](Cc2c[nH]c3ccccc23)NC(=O)[C@@H]2CCCN2C(=O)[C@H]2CCCN2C(=O)[C@H](CCN)NC(=O)[C@H](CCCNC(=N)N)NC(=O)[C@H](CC(N)=O)NC(=O)[C@H](CCN)NC(=O)[C@H](Cc2c[nH]c3ccccc23)NC(=O)[C@H](CC(N)=O)NC(=O)[C@@H](CCN)NC(=O)[C@H]([C@@H](C)CC)NC(=O)[C@H](CCCNC(=N)N)NC1=O` [Example 17] (HELM PEPTIDE1{W.R.I.R.I.[NCC[C@@H](N[*:1])C(=O)[*:2]].N.W.[Dab].N.R.[Dab].[dP].P}$PEPTIDE1,PEPTIDE1,1:R1-14:R2$$$V2.0), the “Shigella boydii DSM 7532 MIC” value in the series with Shigella boydii DSM 7532 came to 4 µg/mL. Further, the results for the GI50 at 48 h in the series “in vitro” (African green monkey) and in “in vitro” (human) were 44 µg/mL (≈ 24.6 µM) and 38 µg/mL (≈ 21.2 µM), respectively. Besides, the “Hemolysis at 100 μg/mL” value in series [1] is 0.2%.
For `CC[C@H](C)[C@@H]1NC(=O)[C@H](CCCNC(=N)N)NC(=O)[C@H](Cc2c[nH]c3ccccc23)NC(=O)[C@@H]2CCCN2C(=O)[C@H]2CCCN2C(=O)[C@H](CCCNC(=N)N)NC(=O)[C@H](CCCNC(=N)N)NC(=O)[C@H](CC(N)=O)NC(=O)[C@H](CCCNC(=N)N)NC(=O)[C@H](Cc2c[nH]cn2)NC(=O)[C@H](CC(N)=O)NC(=O)[C@@H](CCCNC(=N)N)NC(=O)[C@H]([C@@H](C)CC)NC(=O)[C@H](CCCNC(=N)N)NC1=O` [Example 18] (HELM PEPTIDE1{W.R.I.R.I.[dR].N.H.R.N.R.R.[dP].P}$PEPTIDE1,PEPTIDE1,1:R1-14:R2$$$V2.0) the same measures were 4 µg/mL, > 50 µg/mL, 39 µg/mL (≈ 20.4 µM) and 0.3%.
